From patent US10473670B2 (University of Kentucky Research Foundation, priority 2016, dated 2019)
Entries after “also recorded” stand apart in the source; their conditions may differ.

Legend:
[1] = test system: NT^+/+ and NT^−/− mice; assay: Acute SR 48692 treatment repeated in NT+/+ and NT-/- mice: proximal intestinal TG; assay type: in vivo; settings: 2.5 mg/kg ip 30 min before olive oil
Source text: (§1) FIGS. 13A-D show graphs and images illustrating that NT promotes intestinal cell lipid absorption or accumulation, while NT deficiency reduces intestinal lipid absorption A. Proximal intestines from mice given saline, olive oil, or olive oil+SR 48692 were collected and TG levels quantified as described above (n=8). Graph presents the fold change vs. control mice. * p<0.05 vs. control mice; † p<0.05 vs. mice with olive oil only. B. Male NT^+/+ and NT^−/− mice (n=4) on normal chow were fasted overnight. Mice were injected with either saline or SR 48692 (2.5 mg/kg, i.p). Thirty min after the injection, mice were given olive oil (10 μl/g) by oral gavage and then sacrificed. The proximal small bowel was excised and TG content measured. *p<0.05 vs. saline in NT^+/+ and NT^−/− mice; † p<0.05 vs. olive oil only in NT^+/+ mice; ‡ p<0.05 vs. olive oil only in NT^+/+ mice. C. Weekly body weight was measured in male wild type C57BL/6 mice fed HFD and treated with SR 48692 (2.5 mg/kg diluted in diH2O and administered by oral gavage twice a day) or vehicle (vehicle n=12; SR 48692 n=13). BW slopes were compared: * p<0.05 vehicle vs. SR treatment. D. Weekly food intake was measured in male wild type C57BL/6 mice (n=12-13) fed HFD and chronically treated with either SR 48692 or vehicle. […] All data are mean+/−SD. […]

[2] = test system: AMPK; assay: Western blot of p-AMPK in proximal intestinal mucosa after olive oil gavage; assay type: in vivo; settings: mice after olive oil gavage, with or without SR 48692 pretreatment
Experimental: FIGS. 2A-M includes images and graphs illustrating NT deficiency reduces intestinal lipid absorption. A. (left panel) Fecal triglyceride (TG) was analyzed in male mice fed a high-fat diet (HFD) for 24 wks (n=3); * p=0.05 vs NT^+/+ mice; (right panel) Fecal weight was measured in male NT^+/+ and NT^−/− mice (n=7-9) fed either normal chow (NC) or HFD for 24 wks; there was no significant difference between genotypes. B. Oil red O (ORO) staining of proximal intestines from male mice (6-mo-old) under normal chow fed with or without olive oil by gavage after overnight fasting (n=3). C. Levels of ^13C18-oleic acid (OA) in male mice (5-mo-old) under normal chow fed with ^13C18-OA mixed in olive oil by gavage after an overnight fast was analyzed by nanospray FT-MS (n=3-4). Left panel, * p<0.05 vs. NT^+/+ mice. […] D. ORO staining of proximal intestines from male mice (5-mo-old) following gavage with or without olive oil plus NT after an overnight fast (left panel); TG was quantified (right panel) (n=5). * p<0.05 vs. Saline in NT^+/+ and NT^−/− mice, respectively; † p<0.05 vs. olive oil in NT^−/− mice; ‡ p<0.05 vs. olive oil in NT^+/+ mice. […] Densitometric quantification of p-AMPK was normalized to total AMPK and is presented as fold change vs. p-AMPK in NT^+/+ (right panel, n=9). * p<0.05 vs. NT^+/+. F. Protein extracts from mucosal scrapings of samples were analyzed by western blotting (left panel). […]

[3] = test system: C57BL/6 mice; assay: Chronic SR 48692 treatment of HFD-fed mice: body weight and food intake; assay type: in vivo; settings: wild type mice fed HFD
Source text: FIGS. 13A-D show graphs and images illustrating that NT promotes intestinal cell lipid absorption or accumulation, while NT deficiency reduces intestinal lipid absorption A. Proximal intestines from mice given saline, olive oil, or olive oil+SR 48692 were collected and TG levels quantified as described above (n=8). Graph presents the fold change vs. control mice. * p<0.05 vs. control mice; † p<0.05 vs. mice with olive oil only. B. Male NT^+/+ and NT^−/− mice (n=4) on normal chow were fasted overnight. Mice were injected with either saline or SR 48692 (2.5 mg/kg, i.p). Thirty min after the injection, mice were given olive oil (10 μl/g) by oral gavage and then sacrificed. The proximal small bowel was excised and TG content measured. *p<0.05 vs. saline in NT^+/+ and NT^−/− mice; † p<0.05 vs. olive oil only in NT^+/+ mice; ‡ p<0.05 vs. olive oil only in NT^+/+ mice. C. Weekly body weight was measured in male wild type C57BL/6 mice fed HFD and treated with SR 48692 (2.5 mg/kg diluted in diH2O and administered by oral gavage twice a day) or vehicle (vehicle n=12; SR 48692 n=13). […] D. Weekly food intake was measured in male wild type C57BL/6 mice (n=12-13) fed HFD and chronically treated with either SR 48692 or vehicle. […]
All procedures were approved by the Institutional Animal Care and Use Committee of the University of Kentucky. […] Body weight and food intake were measured weekly. […]

[4] = test system: C57BL/6 mice; assay: Acute SR 48692 treatment: proximal intestinal TG content after olive oil gavage; assay type: in vivo; settings: 2.5 mg/kg ip 30 min before olive oil gavage
Source text: as §1

[5] = test system: mTORC1 and ERK1/2 signaling; assay: Western blot of p-S6K1 and p-ERK1/2 in BON cells; assay type: cell-based, human; settings: pretreatment with CC 10 μM, AICAR 1 mM 3 h
Experimental: FIGS. 16A-D show graphs and images illustrating Cross-talk of AMPK and mTORC1 signaling. A. Diagram of cross-talk of AMPK and mTORC1 signaling. B. Western blot analysis of BON cells treated with or without AICAR (left panel) or 1 mM AICAR and CC (10 μM) (right panel) for 3 h. C. NT EIA (upper panel) and western blotting (lower panel) on BON cells expressing control vector and myc-raptor S722A/S792A treated with AICAR (1 mM) for 3 h. D. NT EIA (upper panel) and western blotting (lower panel) on BON cells expressing control vector and NTC and TSC2 siRNA treated with AICAR (1 mM) for 3 h. *p<0.05 vs. control in vector, †p<0.05 vs. AICAR in vector (C); *p<0.05 vs. control in NTC siRNA, †p<0.05 vs. control in NTC siRNA, ‡ p<0.05 vs. AICAR in NTC siRNA (D). n=6. All data are mean+/−SD.
AMPK activation inhibits mTORC1 through raptor, a component of mTORC1, or TSC2, a negative regulator of mTORC1 signaling. […] Moreover, a stable BON overexpression cell line was generated with a mutant raptor vector in which both Ser722 and Ser792 (AMPK phosphorylation sites) are replaced by alanine. […] Together, these findings further indicate the interaction of AMPK, mTORC1 and ERK signaling in the regulation of NT secretion.

[6] = test system: AMPK; assay: Western blot of p-AMPK in FHs 74 Int cells; assay type: cell-based, human; settings: FHs 74 Int cells treated with oleate 1 h
Experimental: (§2) G. Human small intestinal cells (FHs74Int) (left panel) and RIE-1 cells (right panel) were treated with the indicated concentrations of oleate for 1 h and lysates were analyzed by western blotting. […] All data are mean+/−SD. Experiments in vitro were at least repeated three times.
(§3) Tissues and cells were lysed with lysis buffer (Cell Signaling Technology), and equal amounts of protein were resolved on 4-12% NuPAGE BisTris gels (Life Technologies) and electrophoretically transferred to polyvinylidene difluoride (PVDF) membranes; the membranes were incubated with primary antibodies overnight at 4° C. followed by secondary antibodies conjugated with horseradish peroxidase. Membranes were developed using chemiluminescence (ECL) Western Blotting System from GE Healthcare Life Science (Piscataway, N.J.) and Thermo Scientific (Waltham, Mass.).

[7] = test system: AMPK; assay: Western blot of p-AMPK in RIE-1 cells; assay type: cell-based, rat; settings: RIE-1 cells treated with oleate 1 h
Experimental: as §2
All data are mean+/−SD. Experiments were repeated at least three times.
as §3

[8] = test system: STC-1 cells; assay: NT release from STC-1 cells (NT EIA); assay type: cell-based, mouse; settings: OA 0.25 mM, phorbol myristate acetate 100 nM
Source text: FIGS. 15A-B show graphs and images illustrating that FFAR1 and FFAR4 agonists increase AMPK activity. A. NT IF (left panel), NT EIA (middle panel, *p<0.05 vs. control) and western blotting (right panel) of STC-1 cells. B. Real-time PCR. GAPDH was used as the internal control (BON cell expression was arbitrarily set at 1). All data are mean+/−SD.
FFAR1 (previously known as GPR40) and FFAR4 (previously known as GPR120) are medium- to long-chain FFA G-protein-coupled receptors that have been implicated in the regulation of energy homeostasis and hormone secretion.

## COc1cccc(OC)c1-c1cc(C(=O)NC2(C(=O)O)C3CC4CC(C3)CC2C4)nn1-c1ccnc2cc(Cl)ccc12 (stereo not shown) [SR 48692]
[1]; NT-/- mice
  lipid absorption after olive oil administration: did not further decrease lipid absorption
[1]; wild type (NT+/+) mice
  intestinal FA absorption (as measured by TG accumulation): inhibited intestinal FA absorption
[2]
  p-AMPK expression in proximal intestine: restored the p-AMPK expression to control levels
[3]; 2.5 mg/kg oral gavage twice a day for 13 weeks
  body weight gain: significantly attenuated body weight gain
[3]; 2.5 mg/kg oral gavage twice a day, 2.5 mg/kg
  food intake (cumulative and weekly): without altering food intake; also recorded: did not show a significant difference
[4]
  intestinal FA absorption following olive oil gavage (proximal intestine TG): decreased intestinal FA absorption

## c1cc(-c2cnn3cc(-c4ccc(OCCN5CCCCC5)cc4)cnc23)ccn1 [compound C]
[5]
  effect of AICAR on p-S6K1 and p-ERK1/2: attenuated this effect

## CCCCCCCC/C=C\CCCCCCCC(=O)[O-].[Na+] [oleate, Oleate sodium]
[6]
  p-AMPK: led to an increase in p-AMPK
[7]
  p-AMPK: led to an increase in p-AMPK

## CCCCCCCCCCCCCC(=O)O[C@@H]1[C@@H](C)[C@@]2(O)[C@@H](C=C(CO)C[C@]3(O)C(=O)C(C)=C[C@@H]23)[C@@H]2C(C)(C)[C@]12OC(C)=O [phorbol myristate acetate]
[8]
  NT release: stimulated NT release
